# Assay results: patent US8450308B2 (Vitae Pharmaceuticals, Inc., priority 2008, dated 2013)
# System: not listed separately
# Assay: BACE cell assay: soluble Amyloid Beta 1-40 (Aβ 1-40) in culture media of H4-APPsw cells
# Assay type: cell-based
# Settings: in vitro cell activity, H4-APPsw cells, secreted Aβ 1-40, overnight treatment; read-out: IC50
# Description: H4 neuroglioma cell line that stably expresses Amyloid Precursor Protein (APP) containing the KM-NL Swedish mutation (H4-APPsw) was generated. For the assay, cells are treated overnight in the presence of inhibitor and the culture media are subjected to ELISA analysis of soluble Amyloid Beta 1-40 (Aβ 1-40).
# H4 neuroglioma cell line was cultured in DMEM with 10% FBS and 1% penicillin/streptomycin (Culture Medium) at 37° C., 5% CO2. […] 24 hrs after transfection, the cells were replaced into three new plates (150 mm) in fresh Culture Medium with 250 ug/ml Zeocin. […] The levels of APPsw expression were analyzed by immunoblotting and the production of Aβ 1-40 was detected by ELISA of culture supernatants. The selected clones are maintained in Culture Medium with 250 μg/ml Zeocin and routinely split in 3-4 days to maintain 20-80% confluence.
# Split cells. Split H4-APPsw cells in Culture Medium and culture overnight such that cells will be ˜80% confluent next morning.
# Create Compound Dilution Plate. After determining the desired final concentration of compound to be tested, create a 500× dilution plate. Add DMSO, but not inhibitor, to each well of Column 1. […] Add compounds of interest at 500× desired final concentration to wells A3-A10. Add DMSO, but not inhibitor, to each well of Columns 11 and 12. Dilute contents of Row A 1:3 in Row B. then continue through Rows C—H.
# Create Media Plate. To create a 2× solution of compound in media, add 996 μL Culture Medium to each well of a 96-well 2 ml deep well plate (Media Plate) in biosafety hood. Add 4 μL 5 mM control compound to Media Plate wells A1-D1 for determination of full inhibition.
# Add media to Cell Plate. With a multichannel pipettor, mix each well of Media Plate several times to insure homogeneity. Add 100 μL of mixture to Black polymer bottom P-D-L plates. Next, place Medium Plate and Cell Plate in the incubator.
# Add cells to Cell Plate. Trypsinize and count H4-APPsw cells. Dilute cells 6×10^5 cells/ml in Culture Medium and remove Cell Plate from incubator. Vortex cells to homogeneity, then using a multichannel repeating pipettor, add 100 μL cell suspension to Cell Plate, adding cells from Row H to Row A. Place Cell Plate in incubator.
# Change media in Cell Plate. After 5 h, check Cell Plate by microscope to insure cells are attached. In culture hood, remove media from Cell Plate using multichannel repeating pipettor. Add 100 μl Culture Medium to each well. Remove Media Plate from incubator and mix with pipettor as previous. Add 100 μl from each well of Media Plate to corresponding well in Cell Plate. Place Cell Plate in incubator overnight.
# Perform ELISA to determine levels of secreted Aβ 1-40. After 16 h incubation, spin Cell Plate for 8 min at 1200 rpm. The primary reading of Aβ 1-40 levels is done using PerkinElmer AlphaLISA technology. Follow the manufacturer's protocol for performing AlphaLISA in a white ½ area Optiwell plate using Row 12 for peptide standard (1:2 dilutions, starting at 15 ng/ml). Data are acquired using PerkinElmer Fusion-Alpha FP-HT, Alpha protocol (Count Time 0.6 s, Count Time Ratio 30%:70%).
# Export data from Fusion using Columnar Report format into a separate file for each plate. Upload data into Activity Base using RIA-DOSE-RESPONSE protocol (Version 1). Data from at least eight doses were fitted to a four parameter logistical model using XLfit software to determine potency.
row,IC50 [µM],SMILES
1,0.1 to 0.5,"CN1C(=O)C2(C[C@H](C3CCCc4ccccc43)Oc3ccc(-c4cccc(C#N)c4)cc32)N=C1N (stereo in doubt) [Compound 188, 3-(2′-amino-1′-methyl-5′-oxo-2-(1,2,3,4-tetrahydronaphthalen-1-yl)-1′,5′-dihydrospiro[chroman-4,4′-imidazole]-6-yl)benzonitrile]"
2,0.001 to 0.1,CN1OC2(CC3(CCCc4ccccc4C3)Oc3ccc(-c4cc(C#N)cc(C#N)c4)cc32)N=C1N (stereo not shown) [Compound 178]
3,0.001 to 0.1,CN1C(=O)C2(CC3(CCCc4ccccc4C3)Oc3ccc(-c4cccc(C#N)c4)cc32)N=C1N (stereo not shown) [Compound 179]
4,0.1 to 0.5,CN1OC2(CC(C3CCCc4ccccc43)Oc3ccc(-c4cc(C#N)cc(C#N)c4)cc32)N=C1N (stereo not shown) [Compound 180]
5,0.001 to 0.1,CN1OC2(CC3(CCCc4ccccc4C3)Oc3ccc(-c4cccnc4)cc32)N=C1N (stereo not shown) [Compound 181]
6,0.001 to 0.1,CN1C(=O)C2(CC(C3CCOC(C)(C)C3)Oc3ccc(-c4ccc(F)c(C#N)c4)cc32)N=C1N (stereo not shown) [Compound 182]
7,0.001 to 0.1,CN1C(=O)C2(CC(C3CCOC(C)(C)C3)Oc3ccc(-c4cc(Cl)cc(C#N)c4)cc32)N=C1N (stereo not shown) [Compound 183]
8,0.001 to 0.1,CN1C(=O)C2(CC(C3CCOC(C)(C)C3)Oc3ccc(-c4cccc(OC(F)(F)F)c4)cc32)N=C1N (stereo not shown) [Compound 184]

# Biological target: T1, truncated human beta-secretase (residues 1-458, His6-tagged at the C-terminus) (Homo sapiens, UniProt P56817)
# T1 construct: truncated human beta-secretase (residues 1-458, His6-tagged at the C-terminus); His6 (C); made in house; host or cells: insect cells D. melanogaster S2 (baculovirus expression system (so in the source))
# Assay: BACE fluorescence quench assay
# Assay type: biochemical
# Settings: in vitro enzyme activity, BACE fluorescence assay, pH 4.5; read-out: IC50
# T1 sequence (P56817 22-458): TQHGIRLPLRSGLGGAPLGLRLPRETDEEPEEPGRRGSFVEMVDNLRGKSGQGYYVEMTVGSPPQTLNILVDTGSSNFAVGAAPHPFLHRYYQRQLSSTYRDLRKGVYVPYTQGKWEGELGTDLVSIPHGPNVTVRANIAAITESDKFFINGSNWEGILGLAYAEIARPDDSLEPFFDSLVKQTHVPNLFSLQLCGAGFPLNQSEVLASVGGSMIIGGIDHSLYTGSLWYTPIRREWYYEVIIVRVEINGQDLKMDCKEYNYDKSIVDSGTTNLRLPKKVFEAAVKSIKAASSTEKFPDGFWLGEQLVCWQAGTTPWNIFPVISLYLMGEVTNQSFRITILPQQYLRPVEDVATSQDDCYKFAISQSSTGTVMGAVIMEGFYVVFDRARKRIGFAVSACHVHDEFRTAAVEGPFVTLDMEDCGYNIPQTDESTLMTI
row,SMILES,IC50 [µM]
1,CN1C(=O)C2(CC(C3CCOC(C)(C)C3)Oc3ccc(-c4cc(F)cc(Cl)c4)cc32)N=C1N (stereo not shown) [Compound 417],1 to 5
2,CC(C)=C[C@H](CCO)[C@@H]1C[C@@]2(N=C(N)N(C)O2)c2cc(-c3cc(F)cc(F)c3)ccc2O1 [Compound 419],1 to 5
3,CN1OC2(CC(C3COc4ccccc4C3)Oc3ccc(-c4cccc(C#N)c4)cc32)N=C1N (stereo not shown) [Compound 422],1 to 5
4,CC(C)=C[C@H](CCO)[C@@H]1C[C@@]2(N=C(N)N(C)O2)c2cc(-c3cccc(C(F)(F)F)c3)ccc2O1 [Compound 423],1 to 5
5,CN1C(=O)[C@@]2(C[C@]3(CCCOC3)Oc3ccc(-c4cccc(-n5cccc5)n4)cc32)N=C1N [Compound 424],1 to 5
6,CC(C)=CC(CCO)C1CC2(N=C(N)N(C)O2)c2cc(-c3cc(C#N)ccc3C)ccc2O1 (stereo not shown) [Compound 425],1 to 5
7,CN1C(=O)[C@@]2(C[C@]3(CCCOC3)Oc3ccc(-c4cccc(Cl)n4)cc32)N=C1N [Compound 426],1 to 5
8,CC(=O)c1cccc(-c2ccc3c(c2)[C@]2(C[C@@]4(CCCOC4)O3)N=C(N)N(C)C2=O)c1 [Compound 427],1 to 5
9,COc1ccc(-c2ccc3c(c2)[C@]2(C[C@]4(CCCOC4)O3)N=C(N)N(C)C2=O)cc1OC [Compound 428],1 to 5
10,CCOC(=O)c1cccc(-c2ccc3c(c2)[C@]2(C[C@@]4(CCCOC4)O3)N=C(N)N(C)C2=O)c1 [Compound 429],1 to 5
11,CN1C(=O)C2(CC(C3CCOC(C)(C)C3)Oc3ccc(-c4ccc(F)c(F)c4)cc32)N=C1N (stereo not shown) [Compound 431],1 to 5
12,CN1C(=O)[C@@]2(C[C@]3(CCCOC3)Oc3ccc(-c4ccc5cn[nH]c5c4)cc32)N=C1N [Compound 433],5 to 10
13,CN1C(=O)[C@@]2(C[C@@]3(CCCOC3)Oc3ccc(-c4cc(CO)ccc4F)cc32)N=C1N [Compound 435],5 to 10
14,Cc1ccc(C#N)cc1-c1ccc2c(c1)[C@]1(C[C@@H](C3CCOC(C)(C)C3)O2)N=C(N)N(C)C1=O (stereo partly shown) [Compound 437],5 to 10
15,CN1OC2(CC3(CCS(=O)(=O)CC3)Oc3ccc(-c4cccc(C#N)c4)cc32)N=C1N (stereo not shown) [Compound 438],5 to 10
16,CN1C(=O)C2(CC3(CCCOC3)Oc3ccc(-c4cccc(-n5ccnc5)n4)cc32)N=C1N (stereo not shown) [Compound 439],5 to 10
17,CC(C)=CC(CCO)[C@H]1C[C@@]2(N=C(N)N(C)O2)c2cc(-c3cccc(C(F)(F)F)c3)ccc2O1 (stereo partly shown) [Compound 442],5 to 10
18,CN1OC2(CC(C3CCOC(C)(C)C3)Oc3ccc(-c4cccc(-n5cccc5)n4)cc32)N=C1N (stereo not shown) [Compound 445],5 to 10
19,CN1C(=O)[C@@]2(C[C@@]3(CCCOC3)Oc3ccc(-c4cccc(C#N)n4)cc32)N=C1N [Compound 446],5 to 10
20,CN1OC2(CC3(CCc4ccccc4CC3)Oc3ccc(-c4cccc(C#N)c4)cc32)N=C1N (stereo not shown) [Compound 451],10 to 50
21,CN1C(=O)C2(CC(C3CCOC(C)(C)C3)Oc3ccc(-c4cccc(F)c4)cc32)N=C1N (stereo not shown) [Compound 452],10 to 50
22,"CN1OC2(CC3(CCCOC3)Oc3ccc(C#Cc4ccccc4)cc32)N=C1N (stereo not shown) [Compound 454, 2″-methyl-6-(phenylethynyl)-2″H-spiro[spiro[chroman-2,1′-(3-oxacyclohexane)]-4,5′-[1,2,4]oxadiazol]-3″-amine]",10 to 50

# Continued, values first:
row,IC50 [µM],SMILES
1,1 to 5,CN1OC2(C[C@@]3(CCCC4CCCCC43)Oc3ccc(-c4cccc(C#N)c4)cc32)N=C1N (stereo partly shown) [Compound 416]
2,1 to 5,CC(C)=CC(CCO)[C@H]1C[C@@]2(N=C(N)N(C)O2)c2cc(-c3cc(F)cc(F)c3F)ccc2O1 (stereo partly shown) [Compound 420]
3,1 to 5,CC(C)=CC(CCO)[C@H]1C[C@@]2(N=C(N)N(C)O2)c2cc(-c3cc(F)cc(F)c3)ccc2O1 (stereo partly shown) [Compound 421]
4,1 to 5,CC(C)=CC(CCO)C1CC2(N=C(N)N(C)O2)c2cc(-c3cccc(C#N)c3F)ccc2O1 (stereo not shown) [Compound 430]
5,5 to 10,CC(C)=CC(CCO)C1CC2(N=C(N)N(C)O2)c2cc(-c3cc(F)ccc3F)ccc2O1 (stereo not shown) [Compound 434]
6,5 to 10,CC(C)=CC(CCO)C1CC2(N=C(N)N(C)O2)c2cc(-c3cccc(F)c3)ccc2O1 (stereo not shown) [Compound 436]
7,5 to 10,Cc1cccc(-c2ccc3c(c2)[C@]2(C[C@@]4(CCCOC4)O3)N=C(N)N(C)C2=O)c1C [Compound 440]
8,5 to 10,CC(C)=C[C@H](CCO)[C@@H]1C[C@@]2(N=C(N)N(C)O2)c2cc(-c3cc(F)cc(F)c3F)ccc2O1 [Compound 441]
9,5 to 10,CN1OC2(CC3(CCCC4CCCCC43)Oc3ccc(-c4cccc(C#N)c4)cc32)N=C1N (stereo not shown) [Compound 443]
10,5 to 10,CC(C)=CC(CCO)[C@@H]1C[C@@]2(N=C(N)N(C)O2)c2cc(-c3cc(F)cc(F)c3)ccc2O1 (stereo partly shown) [Compound 444]
11,5 to 10,CN1C(=O)[C@@]2(C[C@@]3(CCCOC3)Oc3ccc(-c4cccc(Cl)n4)cc32)N=C1N [Compound 447]
12,10 to 50,CN1C(=O)[C@@]2(C[C@@]3(CCCOC3)Oc3ccc(-c4ccco4)cc32)N=C1N [Compound 448]
13,10 to 50,CN1C(=O)[C@@]2(C[C@@]3(CCCOC3)Oc3ccc(-c4cc(C#N)ccc4C(F)(F)F)cc32)N=C1N [Compound 449]
14,10 to 50,CC(C)=CC(CCO)[C@@H]1C[C@@]2(N=C(N)N(C)O2)c2cc(-c3cccc(C(F)(F)F)c3)ccc2O1 (stereo partly shown) [Compound 450]
15,10 to 50,CN1C(=O)C2(C[C@H]([C@@H]3CCOC(C)(C)C3)Oc3ccc(-c4cccc(C#N)c4)cc32)N=C1N (stereo partly shown) [Compound 453]
16,10 to 50,"CN1OCC2(CC3(CCCOC3)Oc3ccc(-c4cccc(C#N)c4)cc32)N=C1N (stereo not shown) [Compound 455, 3-(spiro[spiro[chroman-2,1′-(3-oxacyclohexane)]-4,5′-(3-amino-2-methyl-2,6-dihydro-[1,2,4]oxadiazine)]-6-yl)benzonitrile]"
17,10 to 50,CC(C)=CC(CCO)C1CC2(N=C(N)N(C)O2)c2cc(-c3ccc(F)c(F)c3)ccc2O1 (stereo not shown) [Compound 456]
18,10 to 50,CN1C(=O)[C@@]2(C[C@@]3(CCCOC3)Oc3ccc(-c4ccc5cn[nH]c5c4)cc32)N=C1N [Compound 457]
19,10 to 50,COc1ccc(-c2ccc3c(c2)[C@]2(C[C@@]4(CCCOC4)O3)N=C(N)N(C)C2=O)cc1OC [Compound 458]
